Experimental data taken from patent US20230357870A1 (priority 2020, published 2023).
Entries after “also recorded” stand apart in the source; their conditions may differ. Where two headings read alike, the source gives them in different places.

Legend:
[1] = test system: T7GG-scv2-luc-GFP replicon; experiment: microbe, parasite or virus in culture; type: cell-based, SARS-CoV-2
[2] = test system: T7-scv2-luc-GFP replicon (SEQ ID NO: 2); experiment: microbe, parasite or virus in culture; type: cell-based, SARS-CoV-2
[3] = test system: pSmart BAC T7-scv2-replicon; experiment: microbe, parasite or virus in culture; type: cell-based, SARS-CoV-2; conditions: read-out: Antiviral activity (EC50) against T7-scv2-replicon
[4] = test system: pSmart BAC T7-mcv-replicon; experiment: microbe, parasite or virus in culture; type: cell-based, MERS; conditions: for EC50: read-out: Antiviral activity (EC50) against T7-mcv-replicon
[5] = test system: pSmart BAC T7-scv1-replicon; experiment: microbe, parasite or virus in culture; type: cell-based, SARS-CoV-1; conditions: read-out: Antiviral activity (EC50) against T7-scv1-replicon
[6] = Severe acute respiratory syndrome coronavirus 2, HEK-293T
[7] = Severe acute respiratory syndrome coronavirus 2, Calu-1
[8] = Severe acute respiratory syndrome coronavirus 2, Huh7.5
[9] = Severe acute respiratory syndrome coronavirus 2, A549
[10] = Severe acute respiratory syndrome coronavirus 2, Vero
[11] = Middle East respiratory syndrome-related coronavirus, HEK-293T
[12] = Severe acute respiratory syndrome coronavirus, HEK-293T

| Compound | EC50 [1, 6] [nM] | EC50 [2, 7] [nM] | EC50 [2, 8] [nM] | EC50 [2, 9] [nM] | EC50 [2, 6] [nM] | EC50 [2, 10] [nM] | EC50 [3, 6] [nM] | EC50 [4, 11] [nM] | EC50 [5, 12] [nM] | EC50 [3] [nM] | EC50 [4] [nM] | EC50 [5] [nM] | further results |
| --- | --- | --- | --- | --- | --- | --- | --- | --- | --- | --- | --- | --- | --- |
| Cc1cccc(/C=N/Nc2cc(N3CCOCC3)nc(OCCc3ccccn3)n2)c1 [Apilimod, apilimod] | > 42000 | > 42000 | > 42000 | – | – | – | – | – | – | – | – | – | – |
| CN(C)C(=O)COC(=O)Cc1ccc(OC(=O)c2ccc(NC(=N)N)cc2)cc1 [Camostat, camostat] | > 42000 | > 42000 | – | > 42000 | > 42000 | > 42000 | – | – | – | – | – | – | – |
| N#C[C@@]1(c2ccc3c(N)ncnn23)O[C@H](CO)[C@@H](O)[C@H]1O [GS-441524] | 657 ± 66.4 | 1330 ± 270 | 1030 ± 354 | 1470 ± 163 | 603 ± 131 | 302 ± 19.8 | 603 ± 106 | 5580 ± 357 | 1110 ± 86.5 | – | – | – | antiviral activity (in words) [1]: active; EC50 [1, 9]: 716 ± 311 nM; EC50 [1, 7]: 1000 ± 217 nM; EC50 [1, 8]: 831 ± 201 nM; EC50 [1, 10]: 324 ± 173 nM; concentration to achieve 50% inhibition, MERS replicon compared with SARS-CoV-2 or SARS-CoV-1 replicon [4]: greater concentration; cytotoxicity (293T cells): No cytotoxicity was detected; EC50 ([2]; Severe acute respiratory syndrome coronavirus 2, HEK-293T, 30 h, read-out: potency in inhibiting SARS-CoV-2 replicon replication (EC50), determined by % GFP signal): 645 ± 54.3 nM; EC50 ([2]; Severe acute respiratory syndrome coronavirus 2, HEK-293T, 30 h, read-out: potency in inhibiting SARS-CoV-2 replicon replication (EC50), determined by % luciferase activity): 502 ± 109 nM |
| CC(C)(C)NC(=O)N[C@H](C(=O)N1C[C@H]2[C@@H]([C@H]1C(=O)NC(CC1CCC1)C(=O)C(N)=O)C2(C)C)C(C)(C)C (stereo partly shown) [MK-3034, Boceprevir] | – | – | – | – | – | – | 3550 ± 346 | 4670 ± 519 | 6410 ± 427 | – | – | – | – |
| N=C(N)c1ccc2cc(OC(=O)c3ccc(N=C(N)N)cc3)ccc2c1 [Nafamostat, nafamostat] | > 42000 | > 42000 | – | > 42000 | > 42000 | – | – | – | – | – | – | – | EC50 ([2]; Severe acute respiratory syndrome coronavirus 2, Vero C1008): > 42000 nM |
| CC(C)C[C@H](NC(=O)c1cc2ccccc2o1)C(=O)N[C@H]1CC[C@@H](C)N(S(=O)(=O)c2ccccn2)CC1=O [Relacatib, relacatib] | > 42000 | > 42000 | – | > 42000 | > 42000 | > 42000 | – | – | – | – | – | – | – |
| CCC(CC)COC(=O)[C@H](C)N[P@](=O)(OC[C@H]1O[C@@](C#N)(c2ccc3c(N)ncnn23)[C@H](O)[C@@H]1O)Oc1ccccc1 [Remdesivir, remdesivir] | – | 62.8 | 18.9 | 184 | 11.3 | 2240 | 15.6 ± 5.1 | 81.5 ± 8.8 | 42.9 ± 3.4 | – | – | – | – |
| GC373 | – | – | – | – | – | – | – | – | – | 19.7 ± 4.6 | 29.2 ± 3.7 | 74 ± 4.5 | – |
| GC376 | – | – | – | – | – | – | – | – | – | 20.8 ± 5.6 | 35.2 ± 5.3 | 75.9 ± 23.2 | antiviral activity (in words) [1]: highly potent; also recorded: modestly active; cytotoxicity (293T cells): No cytotoxicity was detected; EC50 ([2]; read-out: potency in inhibiting SARS-CoV-2 replicon replication (EC50), determined by % GFP signal): 22 ± 5.13 nM; EC50 ([2]; read-out: potency in inhibiting SARS-CoV-2 replicon replication (EC50), determined by % luciferase activity): 29.2 ± 9.17 nM |
| PF-00835231 | – | – | – | – | – | – | – | – | – | 74.8 ± 20 | 101 ± 33 | 167 ± 15.3 | fold lower in Vero cells [1]: 75-300 fold |
